{"source": "patent EP4279068A1", "about": "“COMPOSITION COMPRISING A COMBINATION OF CAPSAICIN AND/OR PHENYLCAPSAICIN AND ASTAXANTHIN FOR THE PREVENTION AND TREATMENT OF INFLAMMATORY-BASED SKIN DISEASES, IN PARTICULAR ASSOCIATED WITH SKIN AGING” (Safi Medical Care s.r.l., priority 2022, dated 2023)", "key": {"IL-1β, IL-6 and TNF-α": {"test_system": "IL-1β, IL-6 and TNF-α", "experiment": "Inflammatory cytokine secretion by ELISA in LPS-stimulated macrophages", "assay_type": "cell-based", "details": "macrophages pretreated 1 hr with 15 µm, then 500 ng/ml LPS for 24 hrs, Figure 5", "experimental": "(§1) To evaluate the ability of the synergistic composition of the invention to inhibit the NF-kβ activity in macrophages of rats, we used the DNA-binding activity assay of NF-kβ p65 by ELISA kit for TransAM p65 transcription factor (Active Motif, Carlsbad, CA). The cells were stimulated with 500 ng/ml of LPS in the presence and absence of 15 µm of CAP, 15 µm of ASX or a 15 µm combination of CAP + ASX, for 12 hours, according to the invention. Then, the DNA-binding activity of NF-kβ p65 was determined. 12 hours thereafter LPS stimulation markedly promoted the DNA-binding activity of NF-kβ p65 and the expression of proinflammatory cytokines IL-1β, IL-6, and TNF-α. […] Consistently, similar effects were shown in terms of cytokine expression (Figure 5). An immortalized macrophage cell line was used. The cells were pretreated or not for 1 hr with 15 µm of CAP, 15 µm of ASX or 15 µm of CAP+ASX, and then exposed to 500 ng/ml of LPS for another 24 hrs. IL-1b, IL-6 and TNF-a were detected by ELISA kit purchased from Abcam, Cambridge, (MA) USA. The data are expressed as mean ±SEM, n = 4; *p < 0.001 vs. LPS, **p < 0.001 vs. CAP or ASX alone."}, "NF-kβ p65": {"test_system": "NF-kβ p65", "experiment": "NF-kβ p65 DNA-binding activity, TransAM p65 ELISA kit, in LPS-stimulated macrophages", "assay_type": "cell-based, rats", "details": "500 ng/ml LPS, 15 µm, 12 hours, Fig. 4", "experimental": "as §1"}, "HO-1": {"test_system": "HO-1", "experiment": "HO-1 mRNA expression by quantitative real-time PCR in cultured human fibroblasts", "assay_type": "cell-based", "details": "human immortalized ATCC fibroblasts, peak at 15 µM", "experimental": "The human immortalized ATCC fibroblasts were exposed for 6 hrs to different concentrations of CAP, ASX, or of a combination of the two compounds (5, 10, 15, and 30 µM). […] ASX causes a dose-dependent increase in HO-1 mRNA, measured relative to the non-inducible HO-2 paralog gene, which peaks (approximately 6-fold) at 15 µM) and subsequently decreases to 30 µM. […] To confirm that the HO-1 gene expression measured at the mRNA level corresponded to an equivalent increase in the heme oxygenase activity, this activity was measured at the same doses of CAP and ASX 6 and 24 hours after administration. […] The results highlight the synergistic activity of CAP and ASX in the ability to activate HO-1 gene expression. In order to determine the best ratio between the two compounds we evaluated using the same experimental model, different proportion of the two compounds at the final concentration of 15 µM (CAP/ASX 1:2, 1:1, 2:1)."}, "Nrf2": {"test_system": "Nrf2", "experiment": "Nrf2 protein expression in nuclear extracts by Western blot", "assay_type": "cell-based", "details": "cultured human fibroblasts, final concentration 15 µM, 1 hr up to 12 hrs, Figure 3", "experimental": "The cultured human fibroblasts were exposed to CAP, ASX or to a combination of the two compounds at the final concentration of 15 µM to evaluate the Nrf2 protein expression over time. […] The […] were washed twice with PBS 1X. The cells were then harvested in 1 ml of 1X PBS and centrifuged at 3000 rpm for 3 min at 4 °C. The cell pellet was carefully resuspended in […] of cold buffer containing 10 mM of HEPES (pH 7.9), 10 mM of KCl, 0.1 mM of EDTA, 0.1 mM of EGTA, 1 µM of DTT, and cocktail complete with protease inhibitors (Roche, Mannheim, Germany). The pellet was then incubated on ice for 15 min to allow the cells to swell. After this time, 15 µl of 10% NP-40 were added and the tube was mixed with vortex for 10 s. The homogenate was then centrifuged at 3000 rpm for 3 min at 4 °C and the nuclear pellet was resuspended in 30 µl of cold buffer consisting of 20 mM of HEPES (pH 7.9), 0.4 M of NaCl, 1 mM of EDTA, 1 mM of EGTA, 1 µM of DTT and protease inhibitors. The pellet was then incubated on ice for 15 min and vortexed for 10 - 15 s every 2 min. The nuclear extract was finally centrifuged at 13,000 rpm for 5 min at 4 °C. The supernatant containing the nuclear proteins was broken down by SDS-polyacrylamide gel and subjected to immunoblot analysis using anti-Nrf2 (1:500 dilution) and anti-Sp1 (1:500 dilution) antibodies."}}}
{"smiles": "COc1cc(CNC(=O)CCCC/C=C/C(C)C)ccc1O", "note": "[CAP, (E)-N-(4-hydroxy-3-methoxybenzyl) -8-methylnon-6-enamide]", "values": [{"measurement": "LPS-stimulated cytokine secretion (IL-1β, IL-6 and TNF-α)", "setting": "IL-1β, IL-6 and TNF-α", "result": "significantly reduced"}, {"measurement": "DNA-binding activity of NF-kβ p65", "setting": "NF-kβ p65", "result": "lower DNA-binding activity"}, {"measurement": "HO-1 gene expression (HO-1 mRNA), result in words", "setting": "HO-1; 6 hrs, 5, 10, 15 and 30 µM", "result": "slightly less active"}, {"measurement": "Nrf2 protein expression in the nuclear extracts", "setting": "Nrf2", "result": "lower increase"}]}
{"smiles": "CC1=C(/C=C/C(C)=C/C=C/C(C)=C/C=C/C=C(C)/C=C/C=C(C)/C=C/C2=C(C)C(=O)C(O)CC2(C)C)C(C)(C)CC(O)C1=O", "note": "(stereo not drawn) [ASX, 3,3'-dihydroxy-β-carotene-4,4'-dion]", "values": [{"measurement": "LPS-stimulated cytokine secretion (IL-1β, IL-6 and TNF-α)", "setting": "IL-1β, IL-6 and TNF-α", "result": "significantly reduced"}, {"measurement": "DNA-binding activity of NF-kβ p65", "setting": "NF-kβ p65", "result": "lower DNA-binding activity"}, {"measurement": "increase in HO-1 mRNA, measured relative to the non-inducible HO-2 paralog gene", "setting": "HO-1; 6 hrs exposure", "result": "approximately 6 fold"}, {"measurement": "Nrf2 protein expression in the nuclear extracts", "setting": "Nrf2", "result": "significantly increased"}]}
